Assay results published in PubChem BioAssay (NCI).
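Step 1: Grow cells in 96-well plates. Step 2: Expose to compound for 48 hours at 5 concentrations. Step 3: Interpolate endpoints linearly; if unreached, use highest concentration. TGI: concentration producing complete growth inhibition.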

Tests used:
Assay in all cases: NCI-60 cell line screen, 48 h
U251 CNS = tested on: U251 CNS
NCI-H460 lung = tested on: NCI-H460 lung
LOX IMVI melanoma = tested on: LOX IMVI melanoma
RPMI-8226 leukemia = tested on: RPMI-8226 leukemia
OVCAR-3 ovarian = tested on: OVCAR-3 ovarian
A549 NSCLC = tested on: A549 NSCLC
SF-268 CNS = tested on: SF-268 CNS
MOLT-4 leukemia = tested on: MOLT-4 leukemia
M14 melanoma = tested on: M14 melanoma
OVCAR-5 ovarian = tested on: OVCAR-5 ovarian
OVCAR-8 ovarian = tested on: OVCAR-8 ovarian
KM12 colon = tested on: KM12 colon
NCI/ADR-RES ovarian = tested on: NCI/ADR-RES ovarian
MDA-MB-231 breast = tested on: MDA-MB-231 breast
NCI-H23 lung = tested on: NCI-H23 lung
HCT-15 colon = tested on: HCT-15 colon
HS 578T breast = tested on: HS 578T breast
SK-MEL-5 melanoma = tested on: SK-MEL-5 melanoma
COLO 205 colon = tested on: COLO 205 colon
PC-3 prostate = tested on: PC-3 prostate
CCRF-CEM leukemia = tested on: CCRF-CEM leukemia
K-562 leukemia = tested on: K-562 leukemia
UACC-257 melanoma = tested on: UACC-257 melanoma
786-0 renal = tested on: 786-0 renal
OVCAR-4 ovarian = tested on: OVCAR-4 ovarian
MALME-3M melanoma = tested on: MALME-3M melanoma
MCF7 breast = tested on: MCF7 breast
RXF 393 renal = tested on: RXF 393 renal
SNB-19 CNS = tested on: SNB-19 CNS
MDA-MB-435 = tested on: MDA-MB-435
NCI-H522 lung = tested on: NCI-H522 lung
BT-549 breast = tested on: BT-549 breast
EKVX NSCLC = tested on: EKVX NSCLC
UACC-62 melanoma = tested on: UACC-62 melanoma
HOP-62 NSCLC = tested on: HOP-62 NSCLC
T-47D breast = tested on: T-47D breast
A498 renal = tested on: A498 renal
SK-MEL-28 melanoma = tested on: SK-MEL-28 melanoma
SF-295 CNS = tested on: SF-295 CNS
HCT-116 colon = tested on: HCT-116 colon
SF-539 CNS = tested on: SF-539 CNS
HT29 colon = tested on: HT29 colon
MDA-N = tested on: MDA-N
NCI-H226 lung = tested on: NCI-H226 lung
HL-60(TB) leukemia = tested on: HL-60(TB) leukemia
SK-OV-3 ovarian = tested on: SK-OV-3 ovarian
ACHN renal = tested on: ACHN renal
IGROV1 ovarian = tested on: IGROV1 ovarian
SN12C renal = tested on: SN12C renal
TK-10 renal = tested on: TK-10 renal
SK-MEL-2 melanoma = tested on: SK-MEL-2 melanoma
DU-145 prostate = tested on: DU-145 prostate
CAKI-1 renal = tested on: CAKI-1 renal
HCC-2998 colon = tested on: HCC-2998 colon
SR leukemia = tested on: SR leukemia
SW-620 colon = tested on: SW-620 colon
HOP-92 NSCLC = tested on: HOP-92 NSCLC
SNB-75 CNS = tested on: SNB-75 CNS
UO-31 renal = tested on: UO-31 renal

Compound `Cc1cccc(NC(=O)CCl)c1` has a TGI (U251 CNS) of 5.64 µM, a TGI (NCI-H460 lung) greater than 10 µM and a TGI (LOX IMVI melanoma) greater than 10 µM. It also gave a TGI (RPMI-8226 leukemia) greater than 10 µM, a TGI (OVCAR-3 ovarian) greater than 10 µM and a TGI (A549 NSCLC) greater than 10 µM. For the same compound, the TGI (SF-268 CNS) was greater than 10 µM, the TGI (MOLT-4 leukemia) was greater than 10 µM and the TGI (M14 melanoma) was greater than 10 µM. It also gave a TGI (OVCAR-5 ovarian) greater than 10 µM, a TGI (OVCAR-8 ovarian) greater than 10 µM and a TGI (KM12 colon) greater than 10 µM. For the same compound, the TGI (NCI/ADR-RES ovarian) was greater than 10 µM, the TGI (MDA-MB-231 breast) was greater than 10 µM and the TGI (NCI-H23 lung) was greater than 10 µM. The TGI (HCT-15 colon) was greater than 10 µM, the TGI (HS 578T breast) was greater than 10 µM and the TGI (SK-MEL-5 melanoma) was greater than 10 µM. The TGI (COLO 205 colon) was greater than 10 µM, the TGI (PC-3 prostate) was greater than 10 µM and the TGI (CCRF-CEM leukemia) was 8.83 µM. For the same compound, the TGI (K-562 leukemia) was greater than 10 µM, the TGI (UACC-257 melanoma) was greater than 10 µM and the TGI (786-0 renal) was greater than 10 µM. For the same compound, the TGI (OVCAR-4 ovarian) was 8.18 µM, the TGI (MALME-3M melanoma) was greater than 10 µM and the TGI (MCF7 breast) was greater than 10 µM. For the same compound, the TGI (RXF 393 renal) was greater than 10 µM, the TGI (SNB-19 CNS) was greater than 10 µM and the TGI (MDA-MB-435) was greater than 10 µM. It also gave a TGI (NCI-H522 lung) of 4.32 µM, a TGI (BT-549 breast) greater than 10 µM and a TGI (EKVX NSCLC) greater than 10 µM. It also gave a TGI (UACC-62 melanoma) greater than 10 µM, a TGI (HOP-62 NSCLC) greater than 10 µM and a TGI (T-47D breast) greater than 10 µM. It also gave a TGI (A498 renal) greater than 10 µM, a TGI (SK-MEL-28 melanoma) greater than 10 µM and a TGI (SF-295 CNS) greater than 10 µM. For the same compound, the TGI (HCT-116 colon) was greater than 10 µM, the TGI (SF-539 CNS) was greater than 10 µM and the TGI (HT29 colon) was greater than 10 µM. For the same compound, the TGI (MDA-N) was greater than 10 µM, the TGI (NCI-H226 lung) was greater than 10 µM and the TGI (HL-60(TB) leukemia) was greater than 10 µM. It also gave a TGI (SK-OV-3 ovarian) greater than 10 µM, a TGI (ACHN renal) greater than 10 µM and a TGI (IGROV1 ovarian) greater than 10 µM. It also gave a TGI (SN12C renal) greater than 10 µM, a TGI (TK-10 renal) greater than 10 µM and a TGI (SK-MEL-2 melanoma) greater than 10 µM. The TGI (DU-145 prostate) was greater than 10 µM, the TGI (CAKI-1 renal) was greater than 10 µM and the TGI (HCC-2998 colon) was greater than 10 µM. The TGI (SR leukemia) was greater than 10 µM and the TGI (SW-620 colon) was greater than 10 µM.
Compound `CCCNC(C#N)c1ccc(OCCCCCCCCCCOc2ccc(C(C#N)NCCC)cc2)cc1` (stereo unspecified) has a TGI (U251 CNS) of 42.7 µM, a TGI (HOP-92 NSCLC) of 66.1 µM and a TGI (SNB-75 CNS) greater than 100 µM. The TGI (NCI-H460 lung) was greater than 100 µM, the TGI (LOX IMVI melanoma) was 34.6 µM and the TGI (OVCAR-3 ovarian) was 81.1 µM. For the same compound, the TGI (A549 NSCLC) was greater than 100 µM, the TGI (SF-268 CNS) was greater than 100 µM and the TGI (MOLT-4 leukemia) was 39.8 µM. The TGI (M14 melanoma) was greater than 100 µM, the TGI (OVCAR-5 ovarian) was greater than 100 µM and the TGI (OVCAR-8 ovarian) was greater than 100 µM. It also gave a TGI (KM12 colon) greater than 100 µM, a TGI (NCI/ADR-RES ovarian) greater than 100 µM and a TGI (MDA-MB-231 breast) greater than 100 µM. The TGI (NCI-H23 lung) was greater than 100 µM, the TGI (HCT-15 colon) was greater than 100 µM and the TGI (HS 578T breast) was greater than 100 µM. For the same compound, the TGI (SK-MEL-5 melanoma) was greater than 100 µM, the TGI (COLO 205 colon) was greater than 100 µM and the TGI (PC-3 prostate) was greater than 100 µM. It also gave a TGI (CCRF-CEM leukemia) of 43.7 µM, a TGI (K-562 leukemia) of 76.3 µM and a TGI (UACC-257 melanoma) greater than 100 µM. For the same compound, the TGI (786-0 renal) was greater than 100 µM, the TGI (OVCAR-4 ovarian) was greater than 100 µM and the TGI (MALME-3M melanoma) was greater than 100 µM. The TGI (MCF7 breast) was greater than 100 µM, the TGI (RXF 393 renal) was 65.1 µM and the TGI (SNB-19 CNS) was greater than 100 µM. For the same compound, the TGI (UO-31 renal) was greater than 100 µM, the TGI (MDA-MB-435) was greater than 100 µM and the TGI (NCI-H522 lung) was greater than 100 µM. It also gave a TGI (BT-549 breast) greater than 100 µM, a TGI (EKVX NSCLC) greater than 100 µM and a TGI (UACC-62 melanoma) greater than 100 µM. It also gave a TGI (HOP-62 NSCLC) greater than 100 µM, a TGI (T-47D breast) greater than 100 µM and a TGI (A498 renal) of 42.7 µM. For the same compound, the TGI (SK-MEL-28 melanoma) was greater than 100 µM, the TGI (SF-295 CNS) was greater than 100 µM and the TGI (HCT-116 colon) was greater than 100 µM. It also gave a TGI (SF-539 CNS) greater than 100 µM, a TGI (HT29 colon) greater than 100 µM and a TGI (MDA-N) greater than 100 µM. It also gave a TGI (NCI-H226 lung) of 93.9 µM, a TGI (HL-60(TB) leukemia) of 43 µM and a TGI (SK-OV-3 ovarian) greater than 100 µM. For the same compound, the TGI (ACHN renal) was greater than 100 µM, the TGI (IGROV1 ovarian) was greater than 100 µM and the TGI (SN12C renal) was greater than 100 µM. For the same compound, the TGI (TK-10 renal) was 69.2 µM, the TGI (SK-MEL-2 melanoma) was greater than 100 µM and the TGI (DU-145 prostate) was greater than 100 µM. It also gave a TGI (HCC-2998 colon) greater than 100 µM, a TGI (SR leukemia) of 61.3 µM and a TGI (SW-620 colon) greater than 100 µM.
In the case of `Nc1nc(Cl)cc(NCC2(CO)CCC(O)C2)n1` (stereo unspecified), the TGI (U251 CNS) is reported as greater than 100 µM, the TGI (HOP-92 NSCLC) is reported as greater than 100 µM and the TGI (SNB-75 CNS) is reported as greater than 100 µM. The TGI (NCI-H460 lung) was greater than 100 µM, the TGI (LOX IMVI melanoma) was greater than 100 µM and the TGI (RPMI-8226 leukemia) was greater than 100 µM. The TGI (OVCAR-3 ovarian) was greater than 100 µM, the TGI (A549 NSCLC) was greater than 100 µM and the TGI (SF-268 CNS) was greater than 100 µM. The TGI (MOLT-4 leukemia) was greater than 100 µM, the TGI (M14 melanoma) was greater than 100 µM and the TGI (OVCAR-5 ovarian) was greater than 100 µM. For the same compound, the TGI (OVCAR-8 ovarian) was greater than 100 µM, the TGI (KM12 colon) was greater than 100 µM and the TGI (NCI/ADR-RES ovarian) was greater than 100 µM. For the same compound, the TGI (MDA-MB-231 breast) was greater than 100 µM, the TGI (NCI-H23 lung) was greater than 100 µM and the TGI (HCT-15 colon) was greater than 100 µM. The TGI (HS 578T breast) was greater than 100 µM, the TGI (SK-MEL-5 melanoma) was greater than 100 µM and the TGI (COLO 205 colon) was greater than 100 µM. The TGI (PC-3 prostate) was greater than 100 µM, the TGI (CCRF-CEM leukemia) was greater than 100 µM and the TGI (K-562 leukemia) was greater than 100 µM. It also gave a TGI (UACC-257 melanoma) greater than 100 µM, a TGI (786-0 renal) greater than 100 µM and a TGI (OVCAR-4 ovarian) greater than 100 µM. It also gave a TGI (MALME-3M melanoma) greater than 100 µM, a TGI (MCF7 breast) greater than 100 µM and a TGI (RXF 393 renal) greater than 100 µM. It also gave a TGI (SNB-19 CNS) greater than 100 µM, a TGI (UO-31 renal) greater than 100 µM and a TGI (MDA-MB-435) greater than 100 µM. It also gave a TGI (NCI-H522 lung) greater than 100 µM, a TGI (BT-549 breast) greater than 100 µM and a TGI (EKVX NSCLC) greater than 100 µM. For the same compound, the TGI (UACC-62 melanoma) was greater than 100 µM, the TGI (HOP-62 NSCLC) was greater than 100 µM and the TGI (T-47D breast) was greater than 100 µM. It also gave a TGI (A498 renal) greater than 100 µM, a TGI (SK-MEL-28 melanoma) greater than 100 µM and a TGI (SF-295 CNS) greater than 100 µM. For the same compound, the TGI (HCT-116 colon) was greater than 100 µM, the TGI (SF-539 CNS) was greater than 100 µM and the TGI (HT29 colon) was greater than 100 µM. For the same compound, the TGI (MDA-N) was greater than 100 µM, the TGI (NCI-H226 lung) was greater than 100 µM and the TGI (HL-60(TB) leukemia) was greater than 100 µM. It also gave a TGI (SK-OV-3 ovarian) greater than 100 µM, a TGI (ACHN renal) greater than 100 µM and a TGI (IGROV1 ovarian) greater than 100 µM. For the same compound, the TGI (SN12C renal) was greater than 100 µM, the TGI (TK-10 renal) was greater than 100 µM and the TGI (SK-MEL-2 melanoma) was greater than 100 µM. It also gave a TGI (DU-145 prostate) greater than 100 µM, a TGI (CAKI-1 renal) greater than 100 µM and a TGI (SR leukemia) greater than 100 µM. For the same compound, the TGI (SW-620 colon) was greater than 100 µM.
